In patent US12617779B2, “Self degradation-type CDK9 inhibitor prodrug and liposome encapsulating same” (Sumitomo Pharma Co., Ltd., priority 2021, dated 2026):
Structures can show the parent of a compound that is named as a salt.

Assay: Liposome encapsulation test, remote loading method (Experimental Example 4);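 on encapsulation efficiency: encapsulated compound as percent of compound amount introduced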
Format: physicochemical
Conditions: for encapsulation rate, encapsulation efficiency and encapsulated compound content per 50 μmol of lipid: remote loading into liposomes
Experimental: For Example 1, Example 2, Example 3, Example 4, Example 5, Example 6, Example 7, Example 8, Example 9, Example 10, Example 11, Example 12, Example 13, Example 14, Example 15, Example 16, Example 17 and Alvocidib, an encapsulation test in liposomes was performed using a remote loading method.
<Liposome Encapsulation Test of Example 1, Example 2, Example 5, Example 6, Example 9, Example 10, Example 11, Example 12, Example 13, Example 14, Example 15, and Example 16>
Hydrogenated soybean phosphatidylcholine (COATSOME NC-21E, manufactured by NOF CORPORATION, 7.77 g), cholesterol (manufactured by Sigma, 2.78 g) and distearoylphosphatidylethanolamine-methoxypolyethylene glycol 2000 (SUNBRIGHT DSPE-020CN, manufactured by NOF CORPORATION, 2.47 g) were dissolved in tert-butyl alcohol (720 mL) warmed to 65° C. The solution was placed in an eggplant flask and frozen in a dry ice-acetone bath, and then the tert-butyl alcohol was removed by evaporation under reduced pressure to give a lipid mixture.
To the above lipid mixture was added a 250 mM ammonium sulfate solution (240 mL), and the mixture was warmed to 65° C., and dispersed by a homogenizer (ULTRA-TURRAX, manufactured by IKA) to give a crude liposome dispersion. Then, the crude liposome dispersion was dispersed by a high pressure homogenizer (Nano-Mizer NM2, manufactured by YOSHIDA KIKAI CO., LTD.) at a pressure of 100 MPa to give liposomes with an average particle size (Z-average) of about 80 nm. The liposome outer solution was replaced with 10 mM L-histidine/10% sucrose solution (pH 6.5) using a dialysis cassette (Slide-A-Lyzer G2 Dialysis Cassettes 20K MWCO, manufactured by Thermo Scientific) to give an empty liposome solution. The solution was filtered through a 0.22 μm membrane filter, and a 10 mM L-histidine/10% sucrose solution (pH 6.5) was added thereto to adjust the total lipid concentration to 50 mM (50 μmol/mL). The lipid concentration was determined by quantitatively analyzing cholesterol using HPLC and calculating the total lipid concentration from the lipid mixing ratio. The amount for the above adjustment was increased or decreased as appropriate.
The compound (10 mg) was weighed, and the empty liposome solution (1 mL) with a total lipid concentration of 50 mM was added thereto. The solution was adjusted to pH 5 to 6 with 1 mol/L hydrochloric acid or 1 mol/L aqueous sodium hydroxide solution as necessary, warmed in a 65° C. water bath for 2 to 3 minutes, and ice-cooled. The mixture was centrifuged at 15,000×g for 5 minutes to precipitate and remove insoluble substances.
The liposome solution (100 μL) after removing insoluble substances was taken on an ultrafiltration filter (Amicon Ultra, 100K, 0.5 mL, manufactured by Merck) and centrifuged at 4° C., 15,000×g for 10 minutes. The compound concentrations in the liposome solution after removing insoluble substances and in the filtrate after ultrafiltration were determined by HPLC, and the encapsulation rate, encapsulation efficiency, and encapsulated compound content per 50 μmol of lipid were calculated by the following formula.
The measurement conditions for HPLC are as follows.
An empty liposome solution with a total lipid concentration of 75 mM was prepared by the same procedure as for the above example compound group. Each compound was weighed, and the empty liposome solution with a total lipid concentration of 75 mM was added thereto such that the compound concentration became 15 mg/mL. The solution was adjusted to pH 5 to 6 with 1 mol/L hydrochloric acid or 1 mol/L aqueous sodium hydroxide solution, warmed in a 65° C. water bath for 3 minutes, and ice-cooled. Hereafter, the encapsulation rate and encapsulation efficiency were calculated by the same procedure as for the above example compound group. The encapsulated compound content per 50 μmol of lipid was calculated by the following formula.
[formula] <Liposome Encapsulation Test of Example 7, Example 8 and Example 17> […]

[1] = Compound concentration when encapsulated 10 mg/mL
[2] = Compound concentration when encapsulated 15 mg/mL

Row | Compound | Encapsulated compound content per 50 μmol of lipid [1] [mg] | Encapsulation efficiency [1] [%] | Encapsulation rate [1] [%] | encapsulation rate, encapsulation efficiency and encapsulated compound content per 50 μmol of lipid | Encapsulated compound content per 50 μmol of lipid [2] [mg] | Encapsulation efficiency [2] [%] | Encapsulation rate [2] [%]
1 | CN1CC[C@H](c2c(OC(=O)N(Cc3ccccc3)CC3CCCCN3)cc(O)c3c(=O)cc(-c4ccccc4Cl)oc23)[C@H](O)C1 (stereo partly drawn) [Example 15, 2-(2-chlorophenyl)-5-hydroxy-8-[(3S,4R)-3-hydroxy-1-methylpiperidin-4-yl]-4-oxo-4H-1-benzopyran-7-yl benzyl [(piperidin-2-yl)methyl]carbamate] | 2.2 | 22.2 | 23.6 |  |  |  | 
2 | CN1CC[C@H](c2c(OC(=O)N(C)CC3CCCCN3)cc(O)c3c(=O)cc(-c4ccccc4Cl)oc23)[C@H](O)C1 (stereo partly drawn) [Example 8, 2-(2-chlorophenyl)-5-hydroxy-8-[(3S,4R)-3-hydroxy-1-methylpiperidin-4-yl]-4-oxo-4H-1-benzopyran-7-yl methyl[(piperidin-2-yl)methyl]carbamate] | 6.1 | 61.1 | 60.6 | high |  |  | 
3 | CCCN(C[C@H]1CCCCN1)C(=O)Oc1cc(O)c2c(=O)cc(-c3ccccc3Cl)oc2c1[C@H]1CCN(C)C[C@H]1O [Example 6, 2-(2-chlorophenyl)-5-hydroxy-8-[(3S,4R)-3-hydroxy-1-methylpiperidin-4-yl]-4-oxo-4H-1-benzopyran-7-yl {[(2R)-piperidin-2-yl]methyl}propylcarbamate] | 6.6 | 65.9 | 73.8 | high |  |  | 
4 | CN1CC[C@H](c2c(OC(=O)N(CCF)CC3CCCCN3)cc(O)c3c(=O)cc(-c4ccccc4Cl)oc23)[C@H](O)C1 (stereo partly drawn) [Example 11, 2-(2-chlorophenyl)-5-hydroxy-8-[(3S,4R)-3-hydroxy-1-methylpiperidin-4-yl]-4-oxo-4H-1-benzopyran-7-yl (2-fluoroethyl) [(piperidin-2-yl)methyl]carbamate] | 4.6 | 46.1 | 45.5 |  |  |  | 
5 | CCCN(CC1CCCCN1)C(=O)Oc1cc(O)c2c(=O)cc(-c3ccccc3Cl)oc2c1[C@H]1CCN(C)C[C@H]1O (stereo partly drawn) [Example 9, 2-(2-chlorophenyl)-5-hydroxy-8-[(3S,4R)-3-hydroxy-1-methylpiperidin-4-yl]-4-oxo-4H-1-benzopyran-7-yl [(piperidin-2-yl)methyl]propylcarbamate] | 7.2 | 72.1 | 78.5 | high |  |  | 
6 | CCN(CC1CCCCN1)C(=O)Oc1cc(O)c2c(=O)cc(-c3ccccc3Cl)oc2c1[C@H]1CCN(C)C[C@H]1O (stereo partly drawn) [Example 7, 2-(2-chlorophenyl)-5-hydroxy-8-[(3S,4R)-3-hydroxy-1-methylpiperidin-4-yl]-4-oxo-4H-1-benzopyran-7-yl ethyl[(piperidin-2-yl)methyl]carbamate dihydrochloride] | 7.3 | 72.8 | 81.1 | high |  |  | 
7 | CC(C)N(CC1CCCCN1)C(=O)Oc1cc(O)c2c(=O)cc(-c3ccccc3Cl)oc2c1[C@H]1CCN(C)C[C@H]1O (stereo partly drawn) [Example 10, 2-(2-chlorophenyl)-5-hydroxy-8-[(3S,4R)-3-hydroxy-1-methylpiperidin-4-yl]-4-oxo-4H-1-benzopyran-7-yl [(piperidin-2-yl)methyl]propan-2-ylcarbamate] | 2.3 | 23.0 | 22.8 |  |  |  | 
8 | CN1CC[C@H](c2c(OC(=O)N(CCCC(F)(F)F)CC3CCCCN3)cc(O)c3c(=O)cc(-c4ccccc4Cl)oc23)[C@H](O)C1 (stereo partly drawn) [Example 14, 2-(2-chlorophenyl)-5-hydroxy-8-[(3S,4R)-3-hydroxy-1-methylpiperidin-4-yl]-4-oxo-4H-1-benzopyran-7-yl [(piperidin-2-yl)methyl](4,4,4-trifluorobutyl)carbamate] | 2.8 | 28.4 | 26.6 |  |  |  | 
9 | CCN(C[C@@H]1CCCCN1)C(=O)Oc1cc(O)c2c(=O)cc(-c3ccccc3Cl)oc2c1[C@H]1CCN(C)C[C@H]1O [Example 1, 2-(2-chlorophenyl)-5-hydroxy-8-[(3S,4R)-3-hydroxy-1-methylpiperidin-4-yl]-4-oxo-4H-1-benzopyran-7-yl ethyl{[(2S)-piperidin-2-yl]methyl}carbamate ditrifluoroacetate] | 7.3 | 73.2 | 82.9 | high |  |  | 
10 | CCCN(C[C@@H]1CCCCN1)C(=O)Oc1cc(O)c2c(=O)cc(-c3ccccc3Cl)oc2c1[C@H]1CCN(C)C[C@H]1O [Example 5, 2-(2-chlorophenyl)-5-hydroxy-8-[(3S,4R)-3-hydroxy-1-methylpiperidin-4-yl]-4-oxo-4H-1-benzopyran-7-yl {[(2S)-piperidin-2-yl]methyl}propylcarbamate] | 7.2 | 71.6 | 75.7 | high |  |  | 
11 | CN1CC[C@H](c2c(OC(=O)N(CCC(F)(F)F)CC3CCCCN3)cc(O)c3c(=O)cc(-c4ccccc4Cl)oc23)[C@H](O)C1 (stereo partly drawn) [Example 13, 2-(2-chlorophenyl)-5-hydroxy-8-[(3S,4R)-3-hydroxy-1-methylpiperidin-4-yl]-4-oxo-4H-1-benzopyran-7-yl [(piperidin-2-yl)methyl](3,3,3-trifluoropropyl)carbamate] | 3.5 | 34.6 | 35.2 |  |  |  | 
12 | CCN(C[C@H]1CCCCN1)C(=O)Oc1cc(O)c2c(=O)cc(-c3ccccc3Cl)oc2c1[C@H]1CCN(C)C[C@H]1O [Example 2, 2-(2-chlorophenyl)-5-hydroxy-8-[(3S,4R)-3-hydroxy-1-methylpiperidin-4-yl]-4-oxo-4H-1-benzopyran-7-yl ethyl{[(2R)-piperidin-2-yl]methyl}carbamate] | 7.1 | 71.1 | 81.1 | high |  |  | 
13 | CN1CC[C@H](c2c(OC(=O)N(C)C[C@@H]3CCCCN3)cc(O)c3c(=O)cc(-c4ccccc4Cl)oc23)[C@H](O)C1 [Example 3, 2-(2-chlorophenyl)-5-hydroxy-8-[(3S,4R)-3-hydroxy-1-methylpiperidin-4-yl]-4-oxo-4H-1-benzopyran-7-yl methyl{[(2S)-piperidin-2-yl]methyl}carbamate] |  |  |  | high | 6.0 | 60.2 | 61.0
14 | COCCN(CC1CCCCN1)C(=O)Oc1cc(O)c2c(=O)cc(-c3ccccc3Cl)oc2c1[C@H]1CCN(C)C[C@H]1O (stereo partly drawn) [Example 12, 2-(2-chlorophenyl)-5-hydroxy-8-[(3S,4R)-3-hydroxy-1-methylpiperidin-4-yl]-4-oxo-4H-1-benzopyran-7-yl (2-methoxyethyl) [(piperidin-2-yl)methyl]carbamate] | 3.6 | 36.2 | 35.8 |  |  |  | 
